Experimental data from paper PMC4655142 (Neuropharmacology, 2015).
Where two headings read alike, the source gives them in different places.

How the values were obtained:
C57Bl/6J mice = assay: Tolerance to acute nicotine after chronic treatment; assay type: in vivo; details: Mus musculus, ip
[1] = cited from earlier work
[2] = cited from earlier work; remark: listed apart in the source
[3] = cited from earlier work; remark: listed apart in the source
[4] = biological target: [125I]-epibatidine binding sites (α4β2-nAChR), cortex membranes (Mus musculus, UniProt O70174+Q9ERK7); assay: Inhibition of [125I]-epibatidine binding to cortex membranes; parameters: species or system C57Bl/6J mice
Sequence of [125I]-epibatidine binding sites (α4β2-nAChR), cortex membranes (O70174 31-629): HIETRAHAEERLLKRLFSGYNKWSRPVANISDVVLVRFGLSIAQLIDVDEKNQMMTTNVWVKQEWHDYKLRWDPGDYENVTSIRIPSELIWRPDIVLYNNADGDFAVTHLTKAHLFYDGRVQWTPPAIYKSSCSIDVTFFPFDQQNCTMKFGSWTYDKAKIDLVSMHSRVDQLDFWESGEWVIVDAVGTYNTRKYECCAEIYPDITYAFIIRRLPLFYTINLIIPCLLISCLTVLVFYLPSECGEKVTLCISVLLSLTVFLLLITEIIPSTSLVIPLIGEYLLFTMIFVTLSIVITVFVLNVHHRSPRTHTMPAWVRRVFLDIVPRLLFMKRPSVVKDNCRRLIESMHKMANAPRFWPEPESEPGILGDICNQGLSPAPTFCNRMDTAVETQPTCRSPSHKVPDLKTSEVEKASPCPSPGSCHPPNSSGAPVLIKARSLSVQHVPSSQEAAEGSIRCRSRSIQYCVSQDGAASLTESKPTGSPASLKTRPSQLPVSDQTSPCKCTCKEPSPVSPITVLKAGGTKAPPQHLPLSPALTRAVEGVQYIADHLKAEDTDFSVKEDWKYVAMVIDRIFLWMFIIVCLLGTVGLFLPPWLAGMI
Sequence of [125I]-epibatidine binding sites (α4β2-nAChR), cortex membranes (Q9ERK7 26-501): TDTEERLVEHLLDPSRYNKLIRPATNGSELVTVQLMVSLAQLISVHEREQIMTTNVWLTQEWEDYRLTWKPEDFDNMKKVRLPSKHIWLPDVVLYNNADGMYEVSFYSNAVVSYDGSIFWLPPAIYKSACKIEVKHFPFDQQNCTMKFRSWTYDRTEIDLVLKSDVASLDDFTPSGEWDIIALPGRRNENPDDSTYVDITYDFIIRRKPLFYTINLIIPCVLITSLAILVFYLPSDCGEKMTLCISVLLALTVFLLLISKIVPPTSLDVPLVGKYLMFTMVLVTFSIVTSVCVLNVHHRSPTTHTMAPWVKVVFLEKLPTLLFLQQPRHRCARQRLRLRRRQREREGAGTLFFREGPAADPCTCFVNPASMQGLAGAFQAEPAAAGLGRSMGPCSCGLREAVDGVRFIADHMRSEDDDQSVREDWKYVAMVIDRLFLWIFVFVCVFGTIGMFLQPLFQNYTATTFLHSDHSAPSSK

For `CN1CCC[C@H]1c1cccnc1` [Nicotine], the ED50 (C57Bl/6J mice; 24 h, read-out: ED50 of acute ip nicotine, Body temperature) was 0.8 ± 0.05 mg/kg, the ED50 (C57Bl/6J mice; 24 h, read-out: ED50 of acute ip nicotine, Open field) was 0.6 ± 0.06 mg/kg and the ED50 (C57Bl/6J mice; 24 h, read-out: ED50 of acute ip nicotine, Y-maze cross) was 0.49 ± 0.04 mg/kg. The ED50 (C57Bl/6J mice; 24 h, read-out: ED50 of acute ip nicotine, Y-maze rear) was 0.38 ± 0.03 mg/kg, the ED50 (C57Bl/6J mice; read-out: ED50 of acute ip nicotine, Body temperature) was 0.88 ± 0.09 mg/kg and the ED50 (C57Bl/6J mice; read-out: ED50 of acute ip nicotine, Open field) was 0.55 ± 0.06 mg/kg. For the same compound, the ED50 (C57Bl/6J mice; read-out: ED50 of acute ip nicotine, Y-maze cross) was 0.47 ± 0.06 mg/kg, the ED50 (C57Bl/6J mice; read-out: ED50 of acute ip nicotine, Y-maze rear) was 0.38 ± 0.05 mg/kg and the Plasma level ([1]; rat, sc infusion of 2.4 mg/kg/day, ref Rowell and Li, 1997) was 43 ng/mL. For the same compound, the Plasma level ([1]; rats, 0.8 mg/kg/day, ref Ghosheh et al, 2001) was 6.5 ng/mL, the Plasma level ([1]; rats, 6.0 mg/kg/day, ref Hussman, Turner et al, 2012, Doura et al, 2008) was 146 to 313 ng/mL and the Plasma level ([2]; mice, 12-24 mg/kg/day, ref Marks, Rowell et al., 2004, Matta et al, 2007) was 40 to 80 ng/mL. The Plasma level ([2]; mice, similar chronic treatment protocols, ref Marks, Rowell et al., 2004) was 40 to 80 ng/mL, the Plasma level ([2]; mouse, in vivo, sc, 1 mg/kg) was 160 ng/mL and the Plasma level ([3]; human smokers, pre-quit, smoking cessation trial, ref Dobrinas et al, 2011) was “up to 52 ng/ml”.

In the case of `c1cnc2cc3c(cc2n1)[C@@H]1CNC[C@H]3C1` [Varenicline], the Ki [4] is listed as 110 ± 10 pM, the “brain:plasma ratio” value ([1]; rats, ref Hussmann, Turner et al, 2012) is listed as 1.5 and the Peak plasma level ([2]; mice, single oral dose of 3 mg (or ~120 mg/kg), ref Obach et al, 2006) is listed as 293 ng/mL. The Plasma level ([3]; humans taking varenicline, smoking cessation study, ref Dobrinas et al, 2011) was “up to 20 ng/ml”, the Plasma level ([3]; humans, single oral dose 1 mg (~[…]), ref Obach et al, 2006, Al-Haj et al, 2013) was 4 to 6 ng/mL and the “t ½” value ([3]; humans, ref Obach et al, 2006) was 17.6 h.
